Measured values taken from US8865901B2, “Gain-of-function Bcl-2 inhibitors” (priority 2009, dated 2014).
pEC50, pIC50: −log10 of the molar value. Where “and” joins values, the source holds several entries; their conditions need not be identical. Identical values can stand only once. Like-named read-outs stand apart in the source and are kept apart here.

Columns and labels:
[1] = test system: TAMH cells transfected with Neo vector (Neo); experiment: Cytotoxicity / apoptosis induction in TAMH cells transfected with Neo vector; assay type: cell-based; conditions: for pIC50: read-out: IC50 TAMH Neo
Method: (§1) To examine the sensitivity of cells over-expressing Bcl-xL to various mitochondrial inhibitors and apoptosis inducers, cell lines over-expressing Bcl-xL were prepared and tested according to Hockenberry et al. U.S. Pat. No. 7,241,804, hereby incorporated by reference in its entirety. Competitive binding of compounds with fluorescent antimycin A3, and competitive binding of compounds with BH3 peptide and Bcl-2. Competitive binding of compounds with BH-3 peptide were also measured using Bcl-xL as previously described. Id.
(§2) Cell lines were grown in RPMI 1640 medium (Gibco, Grand Island, N.Y.) supplemented with 5% fetal bovine serum (Hyclone, Logan, Utah). Also shown is the ratio of TAMH cells expressing Bcl-xL to those expressing A142L (WT:142L). The assay measures the potency of various compounds with respect to inducing apoptosis in these cells.
(§3) The compounds described in Example 2 were tested for their ability to inhibit Bcl-2 gain-of-function in TAMH cells, TAMH cells overexpressing […] (TAMH-Bcl-xL), TAMH cells transfected with Neo vector (Neo), TAMH cells over expressing a variant of Bcl-xL (A142L) using the methods of Example 1. 3-6.
(§4) The effects of the compounds described in Example 8 on TAMH cells, TAMH cells overexpressing Bcl-xL (TAMH-Bcl-xL), TAMH cells transfected with Neo vector (Neo), TAMH cells over expressing a variant of Bcl-xL (A142L) is shown in Table 8
(§5) The effects of the compounds described in Example 10 on TAMH cells, TAMH cells overexpressing Bcl-xL (TAMH-Bcl-xL), TAMH cells transfected with Neo vector (Neo), TAMH cells over expressing a variant of Bcl-xL (A142L) is shown in the following Table 10

[2] = test system: TAMH cells overexpressing Bcl-xL (TAMH-Bcl-xL, Tabx2s); experiment: Cytotoxicity / apoptosis induction in TAMH cells overexpressing Bcl-xL; assay type: cell-based; conditions: for Neo/Bcl-xL: selectivity ratio
Method: as §1, §2, §3, §4, §5

[3] = Table 13, read-out: IC50 TAMH Bcl-xL
[4] = Table 3, TAMH Neo cells, read-out: Neo EC50
[5] = Table 3, TAMH cells overexpressing Bcl-xL (Tabx2s), read-out: 2S EC50
[6] = Table 10, read-out: IC50 TAMH Bcl-XL
[7] = Table 15, read-out: IC50 TAMH Bcl-XL
[8] = Table 5, TAMH Neo cells, read-out: Neo EC50
[9] = Table 5, TAMH cells overexpressing Bcl-xL (Tabx2s), read-out: 2S EC50

Cc1cc(C)c(O)c(Cc2cc(Cl)cc(Cc3cc(C)cc(C)c3O)c2O)c1 [Compound 48167]
pIC50 ([1]; Table 13): 5.25
Fold Select. (Neo/Bcl-xL) ([2]; Table 13): 4
pIC50 [2, 3]: 5.85

Cc1cc(C)c(O)c(CNCc2ccccc2)c1 [Compound 47911]
pEC50 ([1]; Mus musculus, TAMH, Table 8, read-out: TANH Neo): 4.50
pEC50 ([1]; Mus musculus, TAMH, Table 20, read-out: Neo): 4.50
pEC50 ([2]; Mus musculus, TAMH, Table 8, read-out: TAMH Bcl-xL): 5.39
pEC50 ([2]; Mus musculus, TAMH, Table 20, read-out: Bcl-XL): 5.39
Neo/Bcl-xL ([2]; Table 8): 7.8
Neo/Bcl-XL ([2]; Table 20): 7.8

CC(C)(C)c1cc(O)c(/C=N/Nc2ccccn2)cc1Br [Compound 0353]
pEC50 [1, 4]: 5.00
pEC50 [2, 5]: 5.89
Log P (Log P; Table 3): 4.810

O=C(/N=C/c1cc(Br)cc(Br)c1O)c1ccc(C(F)(F)F)cn1 [Compound 0298]
pEC50 [1, 4]: 4.89
pEC50 [2, 5]: 5.64

Oc1ccc(Br)cc1/C=N/Nc1ccccn1 [Compound 0241]
pEC50 [1, 4]: ≤ 4.30
pEC50 [2, 5]: 6.70
Log P (Log P; Table 3): 2.740

Oc1ccc(Cl)cc1Sc1cc(Cl)ccc1O [Compound 4112]
pIC50 ([1]; Table 10): 5.33
Fold Select. (Neo/Bcl-XL) ([2]; Table 10): 2.3
pIC50 [2, 6]: 5.70

CN(C)Cc1cc(Cl)cc(Sc2cc(Cl)cc(CN(C)C)c2O)c1O [Compound 62419]
pIC50 ([1]; Table 10): 4.44
Fold Select. (Neo/Bcl-XL) ([2]; Table 10): 1.8
pIC50 [2, 6]: 4.70

OCc1cc(Cl)cc(Cc2cc(Cl)cc(Cc3cc(Cl)cc(CO)c3O)c2O)c1O [Compound 48445]
pIC50 ([1]; Table 13): 5.35
Fold Select. (Neo/Bcl-xL) ([2]; Table 13): 2.5
pIC50 [2, 3]: 5.74

O=[N+]([O-])c1ccc(S(=O)(=O)Cc2ccccc2)c2nonc12 [Compound 228148]
pEC50 ([1]; Table 8, read-out: TANH Neo): 4.65
pIC50 ([1]; Table 15): 4.65
pEC50 ([2]; Table 8, read-out: TAMH Bcl-xL): 5.22
Neo/Bcl-xL ([2]; Table 8): 3.8
Fold Selectivity (Neo/Bcl-XL) ([2]; Table 15): 3.8
pIC50 [2, 7]: 5.22

O=S(=O)(c1cc(Br)ccc1O)c1cc(Br)ccc1O [Compound 1050]
pIC50 ([1]; Table 10): 4.98
Fold Select. (Neo/Bcl-XL) ([2]; Table 10): 2.8
pIC50 [2, 6]: 5.42

Oc1ccc(Cl)cc1Cc1cc(Cl)cc(Cc2cc(Cl)ccc2O)c1O [Compound 47932]
pEC50 ([1]; Table 8, read-out: TANH Neo): 5.46
pIC50 ([1]; Table 13): 5.46
pEC50 ([2]; Table 8, read-out: TAMH Bcl-xL): 6.30
Neo/Bcl-xL ([2]; Table 8): 7
Fold Select. (Neo/Bcl-xL) ([2]; Table 13): 7
pIC50 [2, 3]: 6.30

CC(=O)c1cc(Cl)cc(Cc2cc(Cl)cc(Cc3cc(Cl)cc(C(C)=O)c3O)c2O)c1O [Compound 48698]
pIC50 ([1]; Table 13): 5.24
Fold Select. (Neo/Bcl-xL) ([2]; Table 13): 8.1
pIC50 [2, 3]: 6.15

Cc1cccc(Cc2ccc(Cc3cccc(C)c3)c(O)c2)c1 [Compound 0051]
pEC50 [1, 8]: 4.81
pEC50 [2, 9]: 5.82
Log P (Log P; Table 5): 6.18

Cc1cccc(Cc2cccc(C)c2O)c1O [Compound 85476]
pIC50 ([1]; Table 10): 4.26
Fold Select. (Neo/Bcl-XL) ([2]; Table 10): 2.9
pIC50 [2, 6]: 4.73

CCN(Cc1cc(Cl)cc(C)c1O)Cc1c(O)ccc2ccccc12 [Compound 88850]
pEC50 ([1]; Table 18, read-out: Neo): 4.92
Neo/Bcl-XL ([2]; Table 18): 2.7
pEC50 ([2]; Table 18, read-out: Bcl-XL): 5.35

[O-][S+](c1cc(Cl)ccc1O)c1cc(Cl)ccc1O [Compound 24019]
pIC50 ([1]; Table 10): 4.49
Fold Select. (Neo/Bcl-XL) ([2]; Table 10): 5.7
pIC50 [2, 6]: 5.25

Cc1cc(Cc2cc(Br)ccc2O)c(O)c(Cc2cc(Br)ccc2O)c1 [Compound 0039]
pEC50 [1, 8]: 5.54
pEC50 [2, 9]: 6.15

Oc1ccc2ccccc2c1Cc1c(O)ccc2ccccc12 [Compound 5992]
pIC50 ([1]; Table 10): 4.91 and 5.10
pIC50 [2, 6]: 5.52 and 5.36

CN(Cc1cc(Cl)cc(Cl)c1O)Cc1c(O)ccc2ccccc12 [Compound 85479]
pEC50 ([1]; Table 18, read-out: Neo): 4.84
Neo/Bcl-XL ([2]; Table 18): 5.8
pEC50 ([2]; Table 18, read-out: Bcl-XL): 5.60

O=S(=O)(c1cc(Cl)ccc1O)c1cc(Cl)ccc1O [Compound 406932]
pIC50 ([1]; Table 10): 4.24
pIC50 ([1]; Table 15): 4.24
Fold Select. (Neo/Bcl-XL) ([2]; Table 10): 4.4
pIC50 [2, 6]: 4.87
Fold Selectivity (Neo/Bcl-XL) ([2]; Table 15): 4.4
pIC50 [2, 7]: 4.87

Cc1cc(C(C)(C)C)cc(Cc2cc(C(C)(C)C)cc(Cc3cc(C(C)(C)C)cc(C)c3O)c2O)c1O [Compound 634604]
pIC50 ([1]; Table 13): 4.49
Fold Select. (Neo/Bcl-xL) ([2]; Table 13): 6.4
pIC50 [2, 3]: 5.30
